US5366983A, “Use of quaternary ammonium compounds to remove salmonella contamination from meat products” (The Board of Trustees of The University of Arkansas, priority 1992, dated 1994)
Values joined by “and” are separate entries in the source; they are usually repeats but may differ in a detail not shown here. Equal entries are not always repeated. “Also recorded” adds a separate entry of the source. Where two headings read alike, the source gives them in different places.

Legend:
[1] = tested on: Salmonella typhimurium ATCC 14028; assay: Effect on viability of Salmonella in suspension (Tables D-1 to D-3); assay type: cell-based
Experimental: EC50 values for four of the compounds were calculated from the bactericidal activity of the compounds as a function of molar concentration by a nonlinear regression algorithm.
In addition to the quaternary ammonium compounds, the antimicrobial activities of chelating agents Na2 -EDTA and EGTA were investigated. Na2 -EDTA was purchased from the Sigma Chemical Company (St. Louis, Mo.). Na2 -EDTA was dissolved in 0.04 M PPB prior to the assay and further dilutions were made in the same buffer.
EGTA was purchased from the Aldrich Chemical Company (Milwaukee, Wis.). EGTA was dissolved in 0.04 M PPB according to the procedure described by Harafuji and Ogawa (J. Biochem. 87:1305-1312 (1980)). After heating EGTA for 15 minutes at 80° C., the pH was adjusted to 7.0 by addition of NaOH. EGTA was filter-sterilized using a 0.2 μm Acro disc filter (Gelman Sciences; Ann Arbor, Mich.) prior to the assay. Further dilutions were made in sterile PPB.

[2] = tested on: Salmonella typhimurium ATCC 14028 attached to human buccal epithelial cells; assay: microbe, parasite or virus in culture; assay type: cell-based; conditions: for adherence, mean value of attached bacteria: Table A-3
Experimental: Additional studies on the detachment of Salmonella typhimurium from human buccal epithelial cells were conducted.
S. typhimurium ATCC 14028 was grown in nutrient broth (BBL Microbiology system, Cockeysville, Md.) for 16 hours at 37° C. The cells were centrifuged and washed twice with 0.008 M phosphate buffered saline (PBS, at pH 7.2) at 4500 rpm for 10 minutes. The last suspension was diluted in PBS to obtain a cell concentration 0.5 to 1×10^9 cells/ml using spectrophotometric measurement. Human epithelial cells were obtained by swabbing the buccal surface of a healthy, nonsmoking donor. […] The number of living cells was estimated and the suspension was diluted to 0.5 to 1×10^5 cells/ml.
The suspension of the human buccal cells was mixed with an equal volume of the bacterial suspension (3.0 ml), or PBS (0.8 ml) in 10 ml Erlenmeyer flasks. Contact was allowed for 1.5 hours at 35° C. under agitation. After incubation, 1.0 ml of each suspension was transferred into an Eppendorff vial, centrifuged at 3000 rpm for 10 minutes, and washed with PBS. The cells were treated with 1.0 ml PBS or 1.0 ml of the test chemical solution. Treatment was performed by suspending, gently vortexing, and centrifuging at 1500 rpm for 10 minutes. After the treatment, the cells were washed and placed on microscopic slides for examination.
EC50 represents the inverse measurement of the potency of a compound. EC50 values were determined by a nonlinear regression of the detachment effect versus the cationic surfactant concentration data from Table A-3.

[3] = tested on: Salmonella typhimurium ATCC 14028; assay: Minimum growth inhibitory concentration, macrodilution; assay type: cell-based; conditions: Salmonella enterica, Mueler Hinton broth, macrodilution (NCCLS)
Experimental: Minimum growth inhibitory concentrations (MICs) of quaternary ammonium compounds and Na2 -EDTA for Salmonella were determined using Mueler Hinton broth (BBL Microbiology system, Cockeysville, Md.) and by the macrodilution method established by the National Committee for Clinical Laboratory Standards (NCCLS). Escherichia coli ATCC 25922 and Staphylococcus aureus ATCC 29213 were included in each assay as reference strains.

[4] = tested on: Salmonella typhimurium on chicken skin; assay: Effect of surfactants on Salmonella attached to chicken skin, drumsticks (Tables F1-F4)
Experimental: The following experiments utilizing chicken legs were conducted to determine the killing potential of a variety of surfactants against Salmonella on the skin and free in solutions. To this end, chicken legs obtained from the Department of Agriculture at the University of Arkansas, Fayetteville, were incubated for thirty minutes at room temperature with a 1:5000 dilution of Salmonella typhimurium. The chicken legs were removed five at a time and then rinsed twice in tap water to remove the unattached and excess Salmonella. The rinse water was sampled, diluted, and then plated onto XLD pour plates. […] The chicken legs were then removed and rinsed twice in tap water to remove the released Salmonella and excess chemicals. Rinses were then sampled, diluted, and then plated onto XLD pour plates.
The chicken legs were then individually washed with 100 ml sterile double distilled water, and then shaken fifty times. Samples of the wash H2 O were diluted and plated onto XLD pour plates. The chicken legs were further swabbed after the washing step above. The swabs were then plated onto the XLD plates. A set of wash samples were enriched with TT Broth Base Hajna and then plated onto XLD plates.
All of the samples were plated in 1 ml aliquots onto XLD pour plates. A positive control sample incubated in sterile double distilled water at 4° C. was run for each of the aforementioned conditions. Treatments occurred at both 4° C. and 25° C. The data is reported as the mean number of CFU/ml. The ratio in the table represents the number of chicken legs out of a sample of ten chicken legs producing the notated number of colonies, as indicated by the +, ++, +++, or ++++.

[5] = tested on: Salmonella typhimurium ATCC 14028 attached to human buccal epithelial cells; assay type: cell-based
Experimental: Studies were conducted on the attachment of Salmonella typhimurium to human buccal epithelial cells using the modified procedure of Boussard et al., International J. Pharmaceutics 53: 253-256 (1989). In this study, the activities of cationic and anionic surfactant compounds as well as certain chelating agents were compared on the detachment of S. typhimurium from epithelial cells.
To this end, bacteria were grown on nutrient agar for 16 hours at 37° C. The cells were suspended in 0.008 M phosphate buffered saline (PBS) at pH 7.2 and washed two times at 4500 rpm for 10 minutes. The last suspension was diluted in PBS to obtain a cell concentration of 0.5 to 1×10^9 cells/ml. Human epithelial cells were obtained by swabbing the buccal surface of a healthy, nonsmoking donor. […] The number of living cells was estimated and the suspension diluted to 0.5 to 1×10^5 cells/ml.
Next, the suspension of the human buccal cells was mixed with an equal volume of the bacterial suspension (3.0 ml), or PBS (0.8 ml). Contact was allowed for 1.5 hours at 35° C. under agitation. The mixtures were then centrifuged for 10 minutes at 4500 rpm. Each suspension, 1.0 ml, was transferred into Eppendorf vials and washed with PBS at 1500 rpm for 10 minutes. After the washing, the cells were treated with 1.0 ml PBS or 1.0 ml of the test chemical solution. Treatment was performed by suspending and vortexing on a low speed for 30 seconds followed by centrifugation at 1500 rpm for 10 minutes.
After the treatment, the cells were washed once with PBS and then 20 μl of erythrosin B was added to each vial. The suspension was centrifuged at 1500 rpm for 10 minutes, and the cells were washed twice under the same conditions. The final pellet was suspended in 300 μl of PBS. This suspension was spread out onto microscope slides and dried overnight at room temperature. After counter staining with methylene blue, the slides were microscopically examined under oil immersion.

[6] = tested on: Salmonella typhimurium on chicken skin; assay: Prevention of attachment of Salmonella on excised chicken skin (Table F5); conditions: rinse water; 30 minutes at room temperature
Experimental: To determine the ability of surfactants to inhibit attachment or produce detachment of Salmonella, the following experiment was conducted. A hole was bored into the bottom of a 150 ml specimen cup. Chicken skin was excised from a drum stick and then placed over the cap of the specimen cup, and then the cap was screwed on. S. typhimurium was diluted 1:5000 with PBS or a surfactant. The surfactants were diluted appropriately. The skin was then inoculated with the solution containing the S. typhimurium and the surfactant for 30 minutes at room temperature.
Following incubation, the skin was washed. The rinse water was diluted appropriately in PBS and then plated onto XLD pour plates. The S. typhimurium was counted and reported as CFU/ml. The skin was swabbed so as to remove any remaining S. typhimurium using a nitroellulose lift and the CFU's/ml on the lift were also counted.

CCCCCCCCCCCC[n+]1ccccc1 [DPC, dodecylpyridinium chloride]
bacterial viability ([1]; 10 ug/ml, Table D-1): 1.39 ± 0.34 × 10^9 CFU/ml | bacterial viability ([1]; 100 ug/ml, Table D-1): 9.8 ± 2.17 × 10^8 CFU/ml and 8.85 ± 0.3 × 10^8 CFU/ml | bacterial viability ([1]; 200 ug/ml, Table D-1): < 10^5 CFU/ml | bacterial viability ([1]; 400 ug/ml, Table D-1): 0 CFU/ml | bacterial viability ([1]; 1000 ug/ml, Table D-1): 0 CFU/ml | adherence, mean value of attached bacteria ([2]; 100 ug/ml): 129 ± 87 | adherence, mean value of attached bacteria ([2]; 150 ug/ml): 141 ± 66 | adherence, mean value of attached bacteria ([2]; 175 ug/ml): 110 ± 73 | adherence, mean value of attached bacteria ([2]; 250 ug/ml): 62 ± 50 | adherence, mean value of attached bacteria ([2]; 300 ug/ml): 61 ± 34 | adherence, mean value of attached bacteria ([2]; 450 ug/ml): 54 ± 23 | EC50 ([2]; Salmonella enterica, Epithelial cell, read-out: EC50 (±SD), detachment): 716 ± 63 µM | MIC ([3]; read-out: MIC): 80 µg/mL | Enrichment, chicken legs out of ten ([4]; 0.1%, 25° C.): 8/10 | Rinse H2O ([4]; 0.1%, 25° C.): 0 CFU/ml | Surfactant Solution ([4]; 0.1%, 25° C.): 0 CFU/ml | Swabs, chicken legs producing the notated number of colonies ([4]; 0.1%, 25° C.): 0/10 | Wash H2O, chicken legs producing the notated number of colonies ([4]; 0.1%, 25° C.): 7/10 | Wash H2O, colonies ([4]; 0.1%, 25° C.): ++ (11-100) | Enrichment, chicken legs out of ten ([4]; 1.0%, 25° C.): 0/10 | Rinse H2O ([4]; 1.0%, 25° C.): 0 CFU/ml | Surfactant Solution ([4]; 1.0%, 25° C.): 0 CFU/ml | Swabs, chicken legs producing the notated number of colonies ([4]; 1.0%, 25° C.): 0/10 | Wash H2O, colonies ([4]; 1.0%, 25° C.): 0 CFU/ml | Enrichment, chicken legs out of ten ([4]; .01%, 25° C.): 10/10 | Rinse H2O ([4]; .01%, 25° C.): + (1-10) | Surfactant Solution ([4]; .01%, 25° C.): 0 CFU/ml | Swabs, chicken legs producing the notated number of colonies ([4]; .01%, 25° C.): 6/10 | Swabs, colonies ([4]; .01%, 25° C.): + (1-10) | Wash H2O, chicken legs producing the notated number of colonies ([4]; .01%, 25° C.): 10/10 | Wash H2O, colonies ([4]; .01%, 25° C.): ++ (11-100) | adherence, mean value of attached bacteria ([5]; 10 ug/ml, Table A-1): 70 ± 35 | adherence, mean value of attached bacteria ([5]; 25 ug/ml, Table A-1): 55 ± 23 | adherence, mean value of attached bacteria ([5]; 50 ug/ml, Table A-1): 46 ± 28 | adherence, mean value of attached bacteria ([5]; 75 ug/ml, Table A-1): 34 ± 20 | adherence, mean value of attached bacteria ([5]; 100 ug/ml, Table A-1): 34 ± 18 | adherence, mean value of attached bacteria ([5]; 500 ug/ml, Table A-1): 14 ± 10

O=C(O)CN(CCN(CC(=O)O)CC(=O)O)CC(=O)O [Na2 -EDTA, disodium ethylenectiaminetetraacetate, reference compound]
bacterial viability ([1]; 1,250 μg/ml, Table D-3): 9.48 ± 0.63 × 10^8 CFU/ml | bacterial viability ([1]; 2,500 μg/ml, Table D-3): 9.68 ± 0.16 × 10^8 CFU/ml | bacterial viability ([1]; 5,000 μg/ml, Table D-3): 9.89 ± 0.37 × 10^8 CFU/ml | bactericidal effect against S. typhimurium (in words) ([1]; viability testing in suspension): ineffective; also recorded: no bactericidal effect | MIC [3]: 625 µg/mL | adherence, mean value of attached bacteria ([5]; 500 ug/ml, Table A-2): 43 ± 21 | adherence, mean value of attached bacteria ([5]; 1250 ug/ml, Table A-2): 22 ± 12 | adherence, mean value of attached bacteria ([5]; 2500 ug/ml, Table A-2): 35 ± 18 | adherence, mean value of attached bacteria ([5]; 10,000 ug/ml, Table A-2): 31 ± 14 | effect on bacteria attached to the epithelial cells (in words) ([5]; chelating agents, Na2-EDTA at 1250 μg/ml): highly effective

CCCCCCCCCCCCOS(=O)(=O)[O-].[Na+] [SDS, sodium dodecylsulfate, reference compound]
CFU/ml on XLD agar [6]: 4 × 10^2 CFU/ml | Enrichment, chicken legs out of ten ([4]; 0.1%, 4° C.): 10/10 | Rinse H2O ([4]; 0.1%, 4° C.): ++ (11-100) | Surfactant Solution ([4]; 0.1%, 4° C.): ++ (11-100) | Swabs, chicken legs producing the notated number of colonies ([4]; 0.1%, 4° C.): 10/10 | Swabs, colonies ([4]; 0.1%, 4° C.): ++ (11-100) | Wash H2O, chicken legs producing the notated number of colonies ([4]; 0.1%, 4° C.): 10/10 | Wash H2O, colonies ([4]; 0.1%, 4° C.): ++ (11-100) | Enrichment, chicken legs out of ten ([4]; 0.5%, 4° C.): 10/10 | Rinse H2O ([4]; 0.5%, 4° C.): + (1-10) | Surfactant Solution ([4]; 0.5%, 4° C.): ++ (11-100) | Swabs, chicken legs producing the notated number of colonies ([4]; 0.5%, 4° C.): 10/10 | Swabs, colonies ([4]; 0.5%, 4° C.): ++ (11-100) | Wash H2O, chicken legs producing the notated number of colonies ([4]; 0.5%, 4° C.): 10/10 | Wash H2O, colonies ([4]; 0.5%, 4° C.): ++ (11-100) | Enrichment, chicken legs out of ten ([4]; 1.0%, 4° C.): 10/10 | Rinse H2O ([4]; 1.0%, 4° C.): + (1-10) | Surfactant Solution ([4]; 1.0%, 4° C.): + (1-10) | Swabs, chicken legs producing the notated number of colonies ([4]; 1.0%, 4° C.): 10/10 | Swabs, colonies ([4]; 1.0%, 4° C.): ++ (11-100) | Wash H2O, chicken legs producing the notated number of colonies ([4]; 1.0%, 4° C.): 10/10 | Wash H2O, colonies ([4]; 1.0%, 4° C.): ++ (11-100) | adherence, mean value of attached bacteria ([5]; 25 ug/ml, Table A-1): 43 ± 25 | adherence, mean value of attached bacteria ([5]; 50 ug/ml, Table A-1): 26 ± 19 | cytotoxicity to buccal epithelial cells ([5]; 500 ug/ml, Table A-1): cytotoxic
